{"source": "patent US20250138013A1", "about": "“SMALL MOLECULE INHIBITOR TARGETING A LEUKEMIC STEM CELL ASSOCIATED GENE FOR HIGH-RISK AML PATIENTS” (The Chinese University of Hong Kong, priority 2023, published 2025)", "key": {"[1]": {"system": "SLC7A11 mRNA expression in MOLM13-EV and MOLM13-SPINK2 cells", "test": "qPCR of SLC7A11 after Nutlin-3a in MOLM13-EV and MOLM13-SPINK2 cells", "format": "cell-based", "conditions": "Nutlin-3a 1 μM, 48 hours and 72 hours", "procedure": "Previously, p53 transcriptionally represses SLC7A11 expression, thereby playing an important pro-ferroptotic role. The data has shown that p53 pathway genes are inversely affected upon SPINK2 modulation (Tables S11 & S12). Based on the hypothesis that SPINK2 overexpression in MOLM13 cells might counteract the p53-mediated repression of SLC7A11, MOLM13-EV and MOLM13-SPINK2 cells are treated with the p53 activator, Nutlin-3a (1 μM), for 48 hours and 72 hours. […] Of note, the effects of Nutlin-3a could not be tested in KG1a cells, since they have a TP53 mutation which renders them insensitive to Nutlin-3a activity.\nGFP-labelled lentiviruses are used for assessing the biological significance of SPINK2 in AML by overexpressing SPINK2 in OCIAML3 and MOLM13 cells (pRSC—SFFV-SPINK2-E2A-Puro-E2A-GFP-Wpre) and empty vector, EV (pRSC—SFFV-Puro-E2A-GFP-wpre) are provided. Transduction is performed in approximately 2×10^5 cells/ml at a multiplicity of infection (MOI) of 20 using Retronectin®-coated 6-well plates according to the manufacturer's instructions (Takara Bio Inc.) This is followed by puromycin selection (1 μg/ml) for at least seven days. Functional studies are then performed on cells as described and extra cells are cryopreserved."}, "[2]": {"system": "SPINK2 protein expression in GDM1 cells", "test": "Western blot of SPINK2 protein after SMI treatment, GDM1", "format": "cell-based", "procedure": "(§1) The SMI is initially tested with increasing doses for its effect upon cell viability in KG1a cells. […] This dose is then tested on GDM1, MOLM13 and OCIAML3 cells.\n(§2) Cells are harvested, washed in Phosphate-buffered saline (PBS) and lysed using Pierce™ IP Lysis Buffer. Protein concentration is measured using Pierce™ BCA Protein Assay Kit. Approximately 30 μg of whole cell lysates are mixed with 4× Laemmli Buffer and β-mercaptoethanol and denatured for 5 minutes at 95° C. Lysates are equally loaded onto and separated using freshly prepared polyacrylamide gels. Proteins are transferred onto 0.2 μm Immun-Blot® PVDF membranes using FLASHBlot transfer buffer. The membranes are then blocked for one hour at room temperature with 5% non-fat dry milk in TBS Tween™ 20 Buffer. This is followed by incubation with primary antibodies diluted in 5% bovine serum albumin (BSA) at 4° C. overnight. Primary antibody dilutions are as follows: SPINK2 (1:1000), ALCAM (1:10000), β-ACTIN (1:10000), GAPDH (1:2500). […]\n(§3) Cells are seeded into 96-well plates at a density of approximately 2×10^5 cells/ml and drugs are added at indicated concentrations. Cell viability is measured at indicated time points using Cell Titer-GLO® Luminescent Cell Viability Assay. […]"}, "[3]": {"test": "Solubility in DMSO and other solvents", "format": "physicochemical", "description": "In another embodiment, the SMI is screened via a structure-based virtual screening (SBVS) and selected from a group of bioactive molecules due to its efficient binding affinity based on its idock scores and its capacity to dissolve in at least one solvent selected from a group comprising of dimethyl sulfoxide (DMSO), water, ethanol or dimethylformamide (DMF).\nTo identify potential SPINK2-SMIs, Structure-based Virtual Screening (SBVS) is initially employed for in silico screening of a small-molecule library comprising 1.5 million compounds to identify bioactive molecules that bind to the targeting domain of SPINK2 (FIG. 16A)."}, "[4]": {"system": "SPINK2 protein expression in KG1a cells", "test": "Western blot of SPINK2 protein after SMI treatment, KG1a", "format": "cell-based", "procedure": "as §1, §2, §3"}, "[5]": {"system": "SLC7A11 mRNA expression in KG1a cells", "test": "qPCR of SPINK2 target gene SLC7A11 after SMI treatment, KG1a", "format": "cell-based", "procedure": "as §1\n(§4) Cells are seeded into 96-well plates at a density of approximately 2×10^5 cells/ml and drugs are added at indicated concentrations. Cell viability is measured at indicated time points using Cell Titer-GLO® Luminescent Cell Viability Assay. For assessment of gene expression after drug treatment, cells are seeded in 6-well plates at approximately 4×10^5 cells/ml and drugs are added at indicated doses. RNA and/or protein is extracted 72 hours later. qPCR and Western Blot are then performed according to standard procedures to detect target gene and protein expression."}, "[6]": {"system": "STEAP3 mRNA expression in KG1a cells", "test": "qPCR of SPINK2 target gene STEAP3 after SMI treatment, KG1a", "format": "cell-based", "procedure": "as §1, §4"}, "[7]": {"system": "SPINK2^high cells (KG1a and GDM1) vs. SPINK2^low cells (OCIAML3 and MOLM13)", "test": "Cytotoxicity compared between SPINK2high and SPINK2low cell lines (Cell Titer Glo)", "format": "cell-based", "conditions": "72 h treatment, compared with SMI-2", "procedure": "(§5) Cells are treated with the SMIs and control (DMSO) for 72 hours and their viability is detected using the Cell Titer Glo® assay according to the manufacturer's instructions. Statistical analysis is performed using one-way ANOVA with Tukey's multiple comparisons test with Mean+SD of at least 2 independent experiments.\nas §4"}, "[8]": {"system": "GDM1 cells", "test": "Cell Titer-GLO cell viability assay, GDM1", "format": "cell-based", "conditions": "GDM1 (SPINK2high), 150 μM for 72 hours", "procedure": "as §1, §5, §4"}, "[9]": {"system": "KG1a cells", "test": "Cell Titer-GLO cell viability assay, KG1a", "format": "cell-based", "procedure": "as §1, §5, §4"}}, "note": "Entries after “also recorded” stand apart in the source; their conditions may differ.", "data": [{"smiles": "COc1ccc(C2=N[C@@H](c3ccc(Cl)cc3)[C@@H](c3ccc(Cl)cc3)N2C(=O)N2CCNC(=O)C2)c(OC(C)C)c1", "note": "[Nutlin-3a]", "values": [{"measurement": "SLC7A11 mRNA expression", "setting": "[1]", "result": "reduced in MOLM13-EV cells to a significantly greater extent than in MOLM13-SPINK2 cells"}]}, {"smiles": "C[C@]12C(=O)N(c3cccc(C(=O)O)c3)C(=O)[C@H]1C1c3ccccc3C2c2ccccc21", "note": "[SMI, 3-[(15R,19S)-15-methyl-16,18-dioxo-17-azapentacyclo [6.6.5.02,7.09, 14.015,19]nonadeca-2,4,6,9,11,13-hexaen-17-yl]benzoic acid]", "values": [{"measurement": "SPINK2 protein expression", "setting": "[2]", "result": "decreased"}, {"measurement": "solubility in DMSO", "setting": "[3]", "result": "soluble in DMSO"}, {"measurement": "SPINK2 protein expression", "setting": "[4]", "result": "decreased"}, {"measurement": "SLC7A11 mRNA expression", "setting": "[5]", "result": "downregulation"}, {"measurement": "STEAP3 mRNA expression", "setting": "[6]", "result": "upregulation"}, {"measurement": "toxicity/specificity against SPINK2high vs SPINK2low cells", "setting": "[7]", "result": "selectively decreased viability"}, {"measurement": "toxicity/specificity against SPINK2high vs SPINK2low cells", "setting": "[7]; listed as SMI-5", "result": "greater toxicity; also recorded: greater specificity"}, {"measurement": "effect on cell viability", "setting": "[8]", "result": "significantly decreased cell viability"}, {"measurement": "cytotoxicity at 150 µM", "setting": "[9]; Homo sapiens, KG-1a, KG1a cells, 150 μM, 72nd hour, read-out: reduction of cell viability", "result": "~50", "unit": "%"}, {"measurement": "effect on cell viability", "setting": "[9]; KG1a (SPINK2high), 150 μM for 72 hours", "result": "significantly decreased cell viability"}]}]}
